From US10743544B2, “Method for inactivating Cronobacter sakazakii” (priority 2015, dated 2020)
Entries after “also recorded” stand apart in the source; their conditions may differ.

How the values were obtained:
[1] = pH of rehydrated PIF after addition of natural extract (pH meter); format: physicochemical; settings: 5 mg/mL added to rehydrated PIF (initial pH 6.82)
Protocol: (§1) A commercial PIF (Wondersun, Harbin, Hei Longjiang Province, China) was purchased and reconstituted according to the manufacturer's instruction. Briefly, 15 g of the PIF was reconstituted in 100 mL of sterile distilled water. 5 mg/mL TP, malic acid, citric acid or ascorbic acid (VC) was added to the rehydrated PIF, and shaken gently to make sure that it was fully dissolved. A pH meter was used to determine the pH of all the solutions. The initial pH of rehydrated PIF was 6.82 and it dropped to pH 3.62, pH 3.55, pH 4.55 and pH 6.46 after added 5 mg/mL malic acid, citric acid, VC and TP, respectively. The final concentration of the natural extract solutions was 0.5% and the milk powder solutions were packed into different test tubes with 9 ml solution in each tube. Milk powder solution without any natural extract product was used as the control group.

[2] = system: Cronobacter sakazakii strains ES45, ES46, ES37, and ES39; test: Tolerance of C. sakazakii to different natural extracts in PIF, plate count (FIG. 1); format: cell-based; settings: 0.5% in PIF, pH not adjusted, four strains; for growth trend of C. sakazakii (plate count): 37° C., up to 7 hours
Protocol: as §1
1 mL of 8.0 Log CFU/mL cell suspensions of four C. sakazakii strains were separately added to 9 mL rehydrated PIF with different natural extracts prepared above to obtain final concentrations of approximately 7.0 Log CFU/mL. The cell suspensions with different natural extracts were incubated at 37° C. for 1, 3, 5 and 7 hours, and mixed to make sure that the solutions were homogeneous. After serial dilution with NS, 0.1 mL of appropriately diluted cultures were spread-plated on TSA plates and incubated upside down at 37° C. overnight to observe the growth of Cronobacter sakazakii.
The tolerance of four different ST types of Cronobacter sakazakii to different natural extracts was studied by serial dilution plate count method. The cell suspensions were separately added to PIF containing 0.5% tea polyphenols, 0.5% VC, 0.5% malic acid or 0.5% citric acid. The pH of each solution was measured using a pH meter and the plate count analysis was carried out at different time points of incubation.

[3] = system: Cronobacter sakazakii strains ES45, ES46, ES37 and ES39; test: Tolerance of C. sakazakii to acidified natural extracts in PIF, pH 3.55 (FIG. 2); format: cell-based; settings: 0.5% in PIF, pH 3.55 versus unadjusted pH
Protocol: A commercial PIF (Wondersun, Harbin, Hei Longjiang Province, China) was purchased and reconstituted according to the manufacturer's instruction. Briefly, 15 g of the PIF was reconstituted in 100 mL of sterile distilled water. 5 mg/mL TP was added to the rehydrated PIF and shaken gently to make sure it was fully dissolved. As controls, malic acid, citric acid and VC were dissolved in PIF in the same way as that of TP. A pH meter was used to determine the pH of all solutions. The initial pH of rehydrated PIF was 6.82 and the value of pH dropped to pH 3.62, pH 3.55, pH 4.55 and pH 6.46 after addition of 5 mg/mL malic acid, citric acid, VC and TP, respectively. The final concentration of the natural extract solutions was 0.5% (w/v) and PIF solutions were packed into different test tubes, each tube with 9 mL solution. PIF solution without adding additional substance was used as the blank control group.
In order to eliminate the effect of pH on the growth of Cronobacter sakazakii, it is necessary to adjust the pH for each treatment group to be the same. The pH of all the treatment groups was adjusted to pH 3.55 with 4 M HCl and 4M NaOH, which was the minimum pH of all the treatment solutions. The PIF acidified with HCl was used as the control. 1 mL of 8.0 Log CFU/mL cell suspensions of the four C. sakazakii strains were separately added to 9 mL acidified PIF with different natural extracts. […]

Structure (SMILES)	pH of rehydrated PIF after addition [1]	growth trend of C. sakazakii (plate count) [2]	antibacterial effect in PIF [2]	antibacterial/inhibitory effect after acidification compared with before [3]
O=C(O)CC(O)(CC(=O)O)C(=O)O [citric acid]	3.55	downward trend	some antibacterial effect	not significantly different; also recorded: not significant
O=C1O[C@H]([C@@H](O)CO)C(O)=C1O [VC, ascorbic acid]	4.55	slower growth trend	not obvious	stronger antibacterial activity than before the treatment
O=C(O)CC(O)C(=O)O (centres unmarked) [malic acid]	3.62	did not change much	not obvious	–
